Test results taken from patent US10508120B2, “TYK2 inhibitors and uses thereof” (Nimbus Lakshmi, Inc., priority 2017, dated 2019).

What was measured:
[1] = target: human TYK2 (JH2domain-pseudokinase) (Homo sapiens (Human), UniProt P29597); assay: TYK2 JH2 Domain Binding Assay (KINOMEscan)
Outline: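 The construct was human TYK2 G556–D888 fused to the NFkB DNA-binding domain and expressed in HEK293 cells; unpurified extract was incubated with compound and liganded beads for 1 hour at room temperature.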

[2] = target: Tyk2 kinase domain (DH1) (Homo sapiens (Human), UniProt P29597); assay: Tyk2 Radioactive Kinase Assay; type: biochemical; settings: compound at 10 μM; ATP 10 μM; read-out: Tyk2 JH1% Inhibition @ 10 μM
Chain of Tyk2 kinase domain (DH1) (P29597 897-1176): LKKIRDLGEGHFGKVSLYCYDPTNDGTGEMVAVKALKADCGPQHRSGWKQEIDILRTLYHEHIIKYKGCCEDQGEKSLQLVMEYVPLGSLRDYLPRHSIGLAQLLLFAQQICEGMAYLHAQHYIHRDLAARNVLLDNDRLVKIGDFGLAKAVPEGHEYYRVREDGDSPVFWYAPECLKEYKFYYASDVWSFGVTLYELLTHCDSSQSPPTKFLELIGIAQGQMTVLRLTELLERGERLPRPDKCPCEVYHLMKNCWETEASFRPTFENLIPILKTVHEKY
Outline: (§1)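 Single-point screen: 10 μM test compound, radioactive kinase read-out, percent inhibition reported for each kinase domain.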

[3] = target: JAK2 kinase domain (JH1) (Homo sapiens (Human), UniProt O60674); assay: JAK2 Radioactive Kinase Assay; type: biochemical; settings: compound at 10 μM; ATP 10 μM; read-out: JAK2 JH1% Inhibition @ 10 μM
Chain of JAK2 kinase domain (JH1) (O60674 849-1124): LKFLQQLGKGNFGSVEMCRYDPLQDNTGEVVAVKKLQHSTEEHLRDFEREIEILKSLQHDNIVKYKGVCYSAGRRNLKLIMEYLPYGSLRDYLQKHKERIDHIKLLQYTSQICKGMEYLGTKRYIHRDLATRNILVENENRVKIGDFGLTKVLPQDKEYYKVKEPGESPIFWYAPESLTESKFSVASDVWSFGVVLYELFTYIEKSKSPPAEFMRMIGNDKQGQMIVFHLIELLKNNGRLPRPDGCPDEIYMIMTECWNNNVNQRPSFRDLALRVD
Outline: as §1

Chain of human TYK2 (JH2domain-pseudokinase) (P29597 556-888): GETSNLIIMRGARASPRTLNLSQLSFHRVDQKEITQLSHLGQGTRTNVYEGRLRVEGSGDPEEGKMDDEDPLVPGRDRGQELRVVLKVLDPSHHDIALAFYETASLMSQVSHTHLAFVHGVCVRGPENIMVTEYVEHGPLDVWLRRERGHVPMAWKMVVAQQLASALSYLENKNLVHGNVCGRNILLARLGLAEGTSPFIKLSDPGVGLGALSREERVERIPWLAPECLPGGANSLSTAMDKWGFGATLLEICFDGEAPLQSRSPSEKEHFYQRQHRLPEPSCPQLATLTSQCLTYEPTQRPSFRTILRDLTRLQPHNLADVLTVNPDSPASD

| Compound | Kd [1] [nM] | inhibition at 10 µM [2] [%] | inhibition at 10 µM [3] [%] |
| --- | --- | --- | --- |
| CNc1cc(Nc2cc(C)cnc2OC)nc2c(C(=O)NCC(C)(C)CO)cnn12 [I-270] | 0.2 to 1 | < 50 | < 50 |
| CNc1cc(Nc2cc(C)cn(-c3ccn(C)n3)c2=O)nc2c(C(=O)NC3CC3)cnn12 [I-271] | 0.2 to 1 | < 50 | < 50 |
| CNc1cc(Nc2cc(C)cnc2OC2CC2)nc2c(C(=O)NC3CCC3)cnn12 [I-278] | 0.2 to 1 | < 50 | < 50 |
| CNc1cc(Nc2cc(C)c(=O)n(-c3cnn(C)c3)c2)nc2c(C(N)=O)cnn12 [I-287, 5-((5-methyl-1-(1-methyl-1H-pyrazol-4-yl)-6-oxo-1,6-dihydropyridin-3-yl)amino)-7-(methylamino)pyrazolo[1,5-a]pyrimidine-3-carboxamide] | 1 to 10 | < 50 | < 50 |
| CNc1cc(Nc2cccn(-c3nc(C)c(C)s3)c2=O)nc2c(C(=O)NC3CCC3)cnn12 [I-293] | 0.2 to 1 | < 50 | < 50 |
| CNc1cc(Nc2cccnc2C(C)(F)F)nc2c(C(=O)NC3CC3)cnn12 [I-297] | 0.2 to 1 | < 50 | < 50 |
| CNc1cc(Nc2cccnc2C(C)(F)F)nc2c(C(=O)N[C@H]3C[C@H]3F)cnn12 [I-300] | 0.2 to 1 | < 50 | < 50 |
| CNc1cc(Nc2cccn(-c3cncc(C)c3)c2=O)nc2c(C(=O)NC3CC3)cnn12 [I-301] | 0.2 to 1 | < 50 | < 50 |
| CNc1cc(Nc2cccn([C@H]3CC[C@@H](N4CCOCC4)CC3)c2=O)nc2c(C(=O)N[C@H]3C[C@H]3F)cnn12 [I-304] | < 0.2 | < 50 | < 50 |
| CNc1cc(Nc2cccnc2C(C)(C)O)nc2c(C(=O)NC3CC3)cnn12 [I-306] | 1 to 10 | < 50 | < 50 |
| CNc1cc(Nc2cccn(C3CCCOC3)c2=O)nc2c(C(=O)NC3CC3)cnn12 (stereo not drawn) [I-313] | < 0.2 | < 50 | < 50 |
| CNc1cc(Nc2cc(Cl)cn(-c3ccnc(C)n3)c2=O)nc2c(C(=O)NC3CC3)cnn12 [I-316] | < 0.2 | < 50 | < 50 |
| CNc1cc(Nc2cc(Cl)cn(-c3ncc(C)s3)c2=O)nc2c(C(=O)NC3CC3)cnn12 [I-322] | 0.2 to 1 | < 50 | < 50 |
| CNc1cc(Nc2cc(Cl)cn(-c3cnn(C4CC4)c3C)c2=O)nc2c(C(=O)NC3CC3)cnn12 [I-325] | 0.2 to 1 | < 50 | < 50 |
| CNc1cc(Nc2cccn(-c3ccnn3C)c2=O)nc2c(C(=O)NC3CCC3)cnn12 [I-328] | < 0.2 | < 50 | < 50 |
| CNc1cc(Nc2cccn(-c3ccnn3C)c2=O)nc2c(C(=O)N[C@H]3C[C@H]3F)cnn12 [I-335] | < 0.2 | < 50 | < 50 |
| COc1ncccc1Nc1cc(NC2CC2)n2ncc(C(=O)N[C@@H]3C[C@@H]3F)c2n1 [I-337, 7-(cyclopropylamino)-N-((1R,2S)-2-fluorocyclopropyl)-5-((2-methoxypyridin-3-yl)amino)pyrazolo[1,5-a]pyrimidine-3-carboxamide] | 0.2 to 1 | < 50 | < 50 |
| CNc1cc(Nc2cccnc2OC)nc2c(C(=O)NC3CC(F)(F)C3)cnn12 [I-338, N-(3,3-difluorocyclobutyl)-5-((2-methoxypyridin-3-yl)amino)-7-(methylamino)pyrazolo[1,5-a]pyrimidine-3-carboxamide] | < 0.2 | < 50 | < 50 |
| CNc1cc(Nc2cccnc2OC2CC2)nc2c(C(=O)NC3CC(F)(F)C3)cnn12 [I-339, 5-((2-cyclopropoxypyridin-3-yl)amino)-N-(3,3-difluorocyclobutyl)-7-(methylamino)pyrazolo[1,5-a]pyrimidine-3-carboxamide] | 0.2 to 1 | < 50 | < 50 |
| CNc1cc(Nc2cccn(-c3cc(C)nn3C)c2=O)nc2c(C(=O)NC3CC3)cnn12 [I-340] | 0.2 to 1 | < 50 | < 50 |
| CNc1cc(Nc2cccn(-c3cc(C)nn3C)c2=O)nc2c(C(=O)N[C@H]3C[C@H]3F)cnn12 [I-341] | 0.2 to 1 | < 50 | < 50 |
| CNc1cc(Nc2cccn(C3CCN(C)CC3)c2=O)nc2c(C(=O)NC3CC3)cnn12 [I-348] | 0.2 to 1 | < 50 | < 50 |
| CNc1cc(Nc2cccn(C3CCN(C)CC3)c2=O)nc2c(C(=O)N[C@H]3C[C@H]3F)cnn12 [I-349] | < 0.2 | < 50 | < 50 |
| CNc1cc(Nc2cccn([C@@H]3CCCOC3)c2=O)nc2c(C(=O)NC3CCC3)cnn12 [I-353] | < 0.2 | < 50 | < 50 |
| CNc1cc(Nc2cccn([C@H]3CC[C@@H](OC)CC3)c2=O)nc2c(C(=O)NC3CC3)cnn12 [I-356] | < 0.2 | < 50 | < 50 |
| CNc1cc(Nc2cccn([C@H]3CC[C@@H](OC)CC3)c2=O)nc2c(C(=O)NC3CCC3)cnn12 [I-358] | < 0.2 | < 50 | < 50 |
| CNc1cc(Nc2cccnc2OC2CN(CC(F)(F)F)C2)nc2c(C(=O)NC3CC3)cnn12 [I-367] | 0.2 to 1 | < 50 | < 50 |

The remaining lines, values ahead:

| Kd [1] [nM] | inhibition at 10 µM [2] [%] | inhibition at 10 µM [3] [%] | Compound |
| --- | --- | --- | --- |
| 1 to 10 | < 50 | < 50 | CNc1cc(-c2cn(C(C)C)c3ncc(Cl)cc23)nc2c(C(=O)NC3CCC3)cnn12 [I-273, 5-(5-chloro-1-isopropyl-1H-pyrrolo[2,3-b]pyridin-3-yl)-N-cyclobutyl-7-(methylamino)pyrazolo[1,5-a]pyrimidine-3-carboamide] |
| < 0.2 | < 50 | < 50 | CNc1cc(Nc2cc(C)cnc2OC2CC2)nc2c(C(=O)N[C@H]3C[C@H]3F)cnn12 [I-279] |
| < 0.2 | < 50 | < 50 | CNc1cc(Nc2cc(C)cnc2OCCOC)nc2c(C(=O)N[C@H]3C[C@H]3F)cnn12 [I-280] |
| 0.2 to 1 | < 50 | < 50 | CNc1cc(Nc2cc(F)cnc2OCCOC)nc2c(C(=O)NC3CC3)cnn12 [I-286] |
| < 0.2 | < 50 | < 50 | [2H]C([2H])([2H])Oc1ncc(F)cc1Nc1cc(NC)n2ncc(C(=O)N[C@H]3C[C@H]3F)c2n1 [I-289] |
| 0.2 to 1 | < 50 | < 50 | CNc1cc(Nc2cccn(-c3nc(C)c(C)s3)c2=O)nc2c(C(=O)NC3CC3)cnn12 [I-291] |
| 1 to 10 | < 50 | < 50 | CNc1cc(Nc2cccnc2OC2COC2)nc2c(C(=O)NC3CCC3)cnn12 [I-298] |
| 0.2 to 1 | < 50 | < 50 | CNc1cc(Nc2cccnc2C(C)(F)F)nc2c(C(=O)NC3CCC3)cnn12 [I-299] |
| < 0.2 | < 50 | < 50 | CNc1cc(Nc2cccn(-c3cncc(C)c3)c2=O)nc2c(C(=O)N[C@H]3C[C@H]3F)cnn12 [I-302] |
| 0.2 to 1 | < 50 | < 50 | CNc1cc(Nc2cccnc2C(C)(C)O)nc2c(C(=O)N[C@H]3C[C@H]3F)cnn12 [I-307] |
| < 0.2 | < 50 | < 50 | CNc1cc(Nc2cccn(-c3ccc(CCN4CCOCC4)cc3)c2=O)nc2c(C(=O)N[C@H]3C[C@H]3F)cnn12 [I-308] |
| < 0.2 | < 50 | 50 to 70 | CNc1cc(Nc2cccnc2OC2CC2)nc2c(C(=O)N[C@H]3C[C@H](O)C3)cnn12 [I-320, 5-((2-cyclopropoxypyridin-3-yl)amino)-N-((1r, 3r)-3-hydroxycyclobutyl)-7-(methylamino)pyrazolo[1,5-a]pyrimidine-3-carboxamide] |
| 0.2 to 1 | < 50 | < 50 | CNc1cc(Nc2cccn(-c3ccnn3C)c2=O)nc2c(C(=O)NC3CC3)cnn12 [I-327] |
| 0.2 to 1 | < 50 | < 50 | COc1ncccc1Nc1cc(NC2CC2)n2ncc(C(=O)NC3CC3)c2n1 [I-336, N-cyclopropyl-7-(cyclopropylamino)-5-((2-methoxypyridin-3-yl)amino)pyrazolo[1,5-a]pyrimidine-3-carboxamide] |
| 0.2 to 1 | < 50 | < 50 | CNc1cc(Nc2cccnc2C(C)(F)F)nc2c(C(=O)NCC(C)(C)CO)cnn12 [I-355] |
| < 0.2 | < 50 | < 50 | CNc1cc(Nc2cccn([C@H]3CC[C@](C)(OC)CC3)c2=O)nc2c(C(=O)NC3CC3)cnn12 [I-361] |
| < 0.2 | < 50 | < 50 | CNc1cc(Nc2cccn(CC3CCCCO3)c2=O)nc2c(C(=O)NC3CC3)cnn12 (stereo not drawn) [I-364] |
